According to ChEMBL document CHEMBL5380773, “Novel Feleucin-K3-Derived Peptides Modified with Sulfono-γ-AA Building Blocks Targeting Pseudomonas aeruginosa and Methicillin-Resistant Staphylococcus aureus Infections” (J Med Chem, 2023):
Numbered stars: 1 amine (or outer) side, 2 acyl side, 3 side chain; on linkers, the order of the positions; unused ones are H or OH. Square brackets hold non-standard residues; d marks the D form. Peptide text beside a SMILES is read from it. * marks the point of attachment. X21 = CC(C)c1cc(C(C)C)c(S(=O)(=O)N(CC(N)=O)C[C@H](Cc2ccccc2)N*)c(C(C)C)c1; X9 = NC(=O)CN(C[C@H](Cc1ccccc1)N*)S(=O)(=O)c1ccccc1[N+](=O)[O-]; X13 = NC(=O)CN(C[C@H](Cc1ccccc1)N*)S(=O)(=O)c1ccc(Br)cc1; X19 = COc1ccc(S(=O)(=O)N(CC(N)=O)C[C@H](Cc2ccccc2)N*)cc1; Benzenesulfonyl(2-NO2) = O=[N+]([O-])c1ccccc1S(=O)(=O)*; X24 = Cc1ccc(S(=O)(=O)N(CC(N)=O)C[C@H](Cc2ccccc2)N*)cc1; X7 = NC(=O)CN(C[C@H](Cc1ccccc1)N*)S(=O)(=O)c1cccc(Cl)c1; X16 = CC(C)C[C@@H](CN(CC(N)=O)S(=O)(=O)c1ccc(Cl)cc1)N*; X25 = CC(C)C[C@@H](CN(CC(N)=O)S(=O)(=O)c1cccc(Cl)c1)N*; X27 = Cc1ccc(S(=O)(=O)N(CC(N)=O)C[C@H](CC(C)C)N*)cc1; Benzenesulfonyl(4-OMe) = COc1ccc(S(=O)(=O)*)cc1; Benzenesulfonyl(4-F) = O=S(=O)(c1ccc(F)cc1)*; X5 = CC(C)c1cc(C(C)C)c(S(=O)(=O)*)c(C(C)C)c1; X3 = N[C@@H](Cc1ccccc1)CN(CC(=O)[*:2])[*:1]; X2 = CC(C)C[C@H](N)CN(CC(=O)[*:2])[*:1]; X10 = O=[N+]([O-])c1ccc(S(=O)(=O)*)cc1; Brosyl = O=S(=O)(c1ccc(Br)cc1)*; X20 = O=S(=O)(c1ccc(Cl)cc1)*; X4 = O=S(=O)(c1cccc(Cl)c1)*; X1 = O=S(=O)(c1ccc(I)cc1)*

The compounds below were run on Erythrocyte (assay: Hemolytic activity against mouse red blood cells incubated for 1 hr).
Format: toxicity, cell-based

`CC(C)C[C@H](NC(=O)[C@H](CC(C)C)NC(=O)[C@H](CCCCN)NC(=O)[C@H](CCCCN)NC(=O)[C@H](CC(C)C)NC(=O)[C@H](CC(C)C)NC(=O)[C@H](CCCCN)NC(=O)CN(C[C@@H](N)Cc1ccccc1)S(=O)(=O)c1ccc(Cl)cc1)C(N)=O` (X20-[X3]KLLKKLL-NH2) and `CC(C)C[C@H](NC(=O)[C@H](CC(C)C)NC(=O)[C@H](CCCCN)NC(=O)[C@H](CCCCN)NC(=O)[C@H](CC(C)C)NC(=O)[C@H](CC(C)C)NC(=O)[C@H](CCCCN)NC(=O)CN(C[C@@H](N)Cc1ccccc1)S(=O)(=O)c1ccc(Br)cc1)C(N)=O` (Brosyl-[X3]KLLKKLL-NH2) are the same in MHC: 64 µg/mL for the first, 64 µg/mL for the second.

Compared with `CC(C)C[C@H](N)CN(CC(=O)N[C@@H](CCCCN)C(=O)N[C@@H](CC(C)C)C(=O)N[C@@H](CC(C)C)C(=O)N[C@@H](CCCCN)C(=O)N[C@@H](CCCCN)C(=O)N[C@@H](CC(C)C)C(=O)N[C@@H](CC(C)C)C(N)=O)S(=O)(=O)c1c(C(C)C)cc(C(C)C)cc1C(C)C` (X5-[X2]KLLKKLL-NH2), `CC(C)C[C@H](NC(=O)[C@H](CC(C)C)NC(=O)[C@H](CCCCN)NC(=O)[C@H](CCCCN)NC(=O)[C@H](CC(C)C)NC(=O)[C@H](CC(C)C)NC(=O)[C@H](CCCCN)NC(=O)CN(C[C@@H](N)Cc1ccccc1)S(=O)(=O)c1c(C(C)C)cc(C(C)C)cc1C(C)C)C(N)=O` (X5-[X3]KLLKKLL-NH2) is 2-fold lower in MHC: 32 µg/mL for the first, 16 µg/mL for the second.

`COc1ccc(S(=O)(=O)N(CC(N)=O)C[C@H](Cc2ccccc2)NC(=O)[C@H](CCCCN)NC(=O)[C@H](CCCCN)NC(=O)[C@H](CC(C)C)NC(=O)[C@H](CC(C)C)NC(=O)[C@H](CCCCN)NC(=O)[C@H](CC(C)C)NC(=O)[C@@H](N)Cc2ccccc2)cc1` (H-FLKLLKK-X19) and `Cc1ccc(S(=O)(=O)N(CC(N)=O)C[C@H](Cc2ccccc2)NC(=O)[C@H](CCCCN)NC(=O)[C@H](CCCCN)NC(=O)[C@H](CC(C)C)NC(=O)[C@H](CC(C)C)NC(=O)[C@H](CCCCN)NC(=O)[C@H](CC(C)C)NC(=O)[C@@H](N)Cc2ccccc2)cc1` (H-FLKLLKK-X24) are the same in MHC: 256 µg/mL for the first, 256 µg/mL for the second.

`CC(C)C[C@H](NC(=O)[C@H](CC(C)C)NC(=O)[C@H](CCCCN)NC(=O)[C@H](CCCCN)NC(=O)[C@H](CC(C)C)NC(=O)[C@H](CC(C)C)NC(=O)[C@H](CCCCN)NC(=O)CN(C[C@@H](N)Cc1ccccc1)S(=O)(=O)c1ccc([N+](=O)[O-])cc1)C(N)=O` (X10-[X3]KLLKKLL-NH2) and `CC(C)C[C@H](NC(=O)[C@H](CC(C)C)NC(=O)[C@H](CCCCN)NC(=O)[C@H](CCCCN)NC(=O)[C@H](CC(C)C)NC(=O)[C@H](CC(C)C)NC(=O)[C@H](CCCCN)NC(=O)CN(C[C@@H](N)Cc1ccccc1)S(=O)(=O)c1ccc(F)cc1)C(N)=O` ({Benzenesulfonyl(4-F)}-[X3]KLLKKLL-NH2) are the same in MHC: 256 µg/mL for the first, 256 µg/mL for the second.

`CC(C)C[C@H](NC(=O)[C@H](CC(C)C)NC(=O)[C@H](CCCCN)NC(=O)[C@H](CC(C)C)NC(=O)[C@@H](N)Cc1ccccc1)C(=O)N[C@@H](CCCCN)C(=O)N[C@@H](CCCCN)C(=O)N[C@@H](Cc1ccccc1)CN(CC(N)=O)S(=O)(=O)c1cccc(Cl)c1` (H-FLKLLKK-X7) and `CC(C)C[C@H](NC(=O)[C@H](CC(C)C)NC(=O)[C@H](CCCCN)NC(=O)[C@H](CC(C)C)NC(=O)[C@@H](N)Cc1ccccc1)C(=O)N[C@@H](CCCCN)C(=O)N[C@@H](CCCCN)C(=O)N[C@@H](Cc1ccccc1)CN(CC(N)=O)S(=O)(=O)c1ccc(Br)cc1` (H-FLKLLKK-X13) are the same in MHC: 256 µg/mL for the first, 256 µg/mL for the second.

Compared with `CC(C)C[C@H](NC(=O)[C@H](CC(C)C)NC(=O)[C@H](CCCCN)NC(=O)[C@H](CCCCN)NC(=O)[C@H](CC(C)C)NC(=O)[C@H](CC(C)C)NC(=O)[C@H](CCCCN)NC(=O)CN(C[C@@H](N)Cc1ccccc1)S(=O)(=O)c1ccccc1[N+](=O)[O-])C(N)=O` ({Benzenesulfonyl(2-NO2)}-[X3]KLLKKLL-NH2), `CC(C)C[C@H](NC(=O)[C@H](CC(C)C)NC(=O)[C@H](CCCCN)NC(=O)[C@H](CCCCN)NC(=O)[C@H](CC(C)C)NC(=O)[C@H](CC(C)C)NC(=O)[C@H](CCCCN)NC(=O)CN(C[C@@H](N)Cc1ccccc1)S(=O)(=O)c1ccc(I)cc1)C(N)=O` (X1-[X3]KLLKKLL-NH2) is 8-fold lower in MHC: 256 µg/mL for the first, 32 µg/mL for the second.

`CC(C)C[C@H](NC(=O)[C@H](CC(C)C)NC(=O)[C@H](CCCCN)NC(=O)[C@H](CC(C)C)NC(=O)[C@@H](N)Cc1ccccc1)C(=O)N[C@@H](CCCCN)C(=O)N[C@@H](CCCCN)C(=O)N[C@@H](Cc1ccccc1)CN(CC(N)=O)S(=O)(=O)c1ccccc1[N+](=O)[O-]` (H-FLKLLKK-X9) and `CC(C)C[C@@H](CN(CC(N)=O)S(=O)(=O)c1ccc(Cl)cc1)NC(=O)[C@H](CCCCN)NC(=O)[C@H](CCCCN)NC(=O)[C@H](CC(C)C)NC(=O)[C@H](CC(C)C)NC(=O)[C@H](CCCCN)NC(=O)[C@H](CC(C)C)NC(=O)[C@@H](N)Cc1ccccc1` (H-FLKLLKK-X16) are the same in MHC: 256 µg/mL for the first, 256 µg/mL for the second.

`Cc1ccc(S(=O)(=O)N(CC(N)=O)C[C@H](CC(C)C)NC(=O)[C@H](CCCCN)NC(=O)[C@H](CCCCN)NC(=O)[C@H](CC(C)C)NC(=O)[C@H](CC(C)C)NC(=O)[C@H](CCCCN)NC(=O)[C@H](CC(C)C)NC(=O)[C@@H](N)Cc2ccccc2)cc1` (H-FLKLLKK-X27) and `CC(C)C[C@@H](CN(CC(N)=O)S(=O)(=O)c1cccc(Cl)c1)NC(=O)[C@H](CCCCN)NC(=O)[C@H](CCCCN)NC(=O)[C@H](CC(C)C)NC(=O)[C@H](CC(C)C)NC(=O)[C@H](CCCCN)NC(=O)[C@H](CC(C)C)NC(=O)[C@@H](N)Cc1ccccc1` (H-FLKLLKK-X25) are the same in MHC: 256 µg/mL for the first, 256 µg/mL for the second.

`COc1ccc(S(=O)(=O)N(CC(=O)N[C@@H](CCCCN)C(=O)N[C@@H](CC(C)C)C(=O)N[C@@H](CC(C)C)C(=O)N[C@@H](CCCCN)C(=O)N[C@@H](CCCCN)C(=O)N[C@@H](CC(C)C)C(=O)N[C@@H](CC(C)C)C(N)=O)C[C@@H](N)CC(C)C)cc1` ({Benzenesulfonyl(4-OMe)}-[X2]KLLKKLL-NH2) and `CC(C)C[C@H](N)CN(CC(=O)N[C@@H](CCCCN)C(=O)N[C@@H](CC(C)C)C(=O)N[C@@H](CC(C)C)C(=O)N[C@@H](CCCCN)C(=O)N[C@@H](CCCCN)C(=O)N[C@@H](CC(C)C)C(=O)N[C@@H](CC(C)C)C(N)=O)S(=O)(=O)c1cccc(Cl)c1` (X4-[X2]KLLKKLL-NH2) are the same in MHC: 256 µg/mL for the first, 256 µg/mL for the second.

Compared with `CC(C)C[C@H](N)CN(CC(=O)N[C@@H](CCCCN)C(=O)N[C@@H](CC(C)C)C(=O)N[C@@H](CC(C)C)C(=O)N[C@@H](CCCCN)C(=O)N[C@@H](CCCCN)C(=O)N[C@@H](CC(C)C)C(=O)N[C@@H](CC(C)C)C(N)=O)S(=O)(=O)c1ccccc1[N+](=O)[O-]` ({Benzenesulfonyl(2-NO2)}-[X2]KLLKKLL-NH2), `CC(C)C[C@H](NC(=O)[C@H](CC(C)C)NC(=O)[C@H](CCCCN)NC(=O)[C@H](CCCCN)NC(=O)[C@H](CC(C)C)NC(=O)[C@H](CC(C)C)NC(=O)[C@H](CCCCN)NC(=O)CN(C[C@@H](N)Cc1ccccc1)S(=O)(=O)c1cccc(Cl)c1)C(N)=O` (X4-[X3]KLLKKLL-NH2) is 2-fold lower in MHC: 256 µg/mL for the first, 128 µg/mL for the second.

In the case of `CC(C)C[C@H](NC(=O)[C@H](CC(C)C)NC(=O)[C@H](CCCCN)NC(=O)[C@H](CC(C)C)NC(=O)[C@@H](N)Cc1ccccc1)C(=O)N[C@@H](CCCCN)C(=O)N[C@@H](CCCCN)C(=O)N[C@@H](Cc1ccccc1)CN(CC(N)=O)S(=O)(=O)c1c(C(C)C)cc(C(C)C)cc1C(C)C` (H-FLKLLKK-X21), the MHC is reported as 32 µg/mL.
